This is an account of results in PMC6222706, “Evaluation of the Antioxidant and Neuroprotectant Activities of New Asymmetrical 1,3-Diketones” (Molecules : A Journal of Synthetic Chemistry and Natural …, 2018).

Experiment [1] deals with SH-SY5Y cells. The experiment can be described thus: Mitochondrial membrane potential by flow cytometry (JC-1) in SH-SY5Y cells under H2O2. The format is cell-based, human. The settings on record: 400 µM H2O2, no compound. On the procedure:
To confirm this MMP recovery results, flow cytometry experiments were carried out with compound 7b and SH-SY5Y cells. Cells were treated with 7b for 24 h and then were exposed to 400 µM H2O2 for 4 h. JC-1 was used as fluorescence indicator of MMP state. In flow cytometry studies of MMP, JC-1 is excited at 488 nm wavelength. Both JC-1 aggregates and monomers show green fluorescence (peak emission at 527 nm) measured in the FL1 channel. […] Thus, healthy non-apoptotic cells are detected in both FL1 and FL2 channels, while cells with disrupted mitochondrial function show fluorescence in FL1 channel but reduced FL2 intensity. […] From these flow cytometry experiments, we can confirm that after compound 7b treatment there is a significant MMP recovery in SH-SY5Y cells under oxidative stress pressure.
For MMP flow cytometry studies, 10^5 SH-SY5Y cells were seeded in 6 well plates. After 24 h, cells were treated with test compound and incubated for other 24 h. After the treatment period, cells were exposed to H2O2 for 4 h. Then, cells were washed twice with Hanks buffer and stained with 5 µM JC-1 in culture media in dark, in a CO2 incubator at 37 °C for 20 min. After the staining period, cells were washed three times with Hanks buffer, collected and resuspended in 500 µL culture media. Data were obtained and analyzed using an Accuri C6 flow cytometer (BD Biosciences, Ann Arbour, MI, USA). […]
In general terms: A flow cytometer gives signals particle by particle.

The test system of experiment [2] is SH-SY5Y cells. In words: Mitochondrial membrane potential (JC-1, microplate reader) in SH-SY5Y cells under H2O2. The format is cell-based, human. The settings on record: SH-SY5Y exposed to 200 µM H2O2 for 24 h, no compound. On the procedure: To know whether β-diketones 6b and 7b will protect the mitochondrial membrane from depolarization under oxidative stress conditions, MMP experiments were carried out with the cationic dye JC-1 (5,5′,6,6′-tetrachloro-1,1′,3,3′-tetraethylbenzimi-dazolylcarbocyanine iodide). JC-1 enters selectively into mitochondria and reversibly change color from red to green as the membrane potential decrease. In healthy cells, JC-1 forms red fluorescent J-aggregates while in apoptotic cells with low MMP, JC-1 remains as monomers with green fluorescence. The ratio of J-aggregates to J-monomers is an indication of healthy non-apoptotic cells.
The fluorescent dye 5,5′,6,6′-tetrachloro-1,1′,3,3′-tetraethylbenzimidazolylcarbocyanine iodide (JC-1) was used for measuring MMP [111]. A decrease in fluorescence intensity represents mitochondrial membrane depolarization. For fluorescence ratio detection under oxidative stress conditions, 96 well plates were seeded with 3 × 10^3 SH-SY5Y cells and after 24 h incubation they were treated with test compound and left out for 24 h. Then, cells were exposed to different H2O2 concentrations for 24 h. After the incubation period, cells were washed twice with Hanks buffer and then stained with 5 µM JC-1 in culture media in dark, in a CO2 incubator at 37 °C for 20 min. At the end of the dye incubation period, cells were washed three times with Hanks buffer and 200 µL of fresh buffer was added. Cells were analyzed with a Varioskan microplate reader. J-aggregates red fluorescence intensity was measured at 535 nm excitation and 595 nm emission wavelength, while excitation at 485 nm and emission 535 nm wavelength was used for J-monomers green fluorescence. Results were expressed as the ratio of fluorescence intensity of J-aggregates to J-monomers. […] JC-1 aggregates show red fluorescence (peak emission at 590 nm) measured in the FL2 channel. Thus, healthy non-apoptotic cells are detected in both FL1 and FL2 channels, while cells with disrupted mitochondrial function show fluorescence in FL1 channel but reduced FL2 intensity.

In experiment [3] the test system is SH-SY5Y cells. Conditions: read-out: H2O2 lethal dose (EC50; LD50), 24 h incubation, cell viability 50% of the control. On the procedure: To test our work hypothesis, neuroprotection studies were carried out with β-diketones 6b and 7b in the SH-SY5Y cell line under oxidative stress conditions.

For `OO` [Compound H2O2, hydrogen peroxide, reference compound], in experiment [1], the “Increase in the FLA-1/FLA-2 ratio” value was found to be 2 fold. The MMP reduction entry in experiment [2] is “about 62%”. For the same compound, the EC50 (in general, the midpoint of the concentration-response curve) in experiment [3] worked out at 200 µM.
